This is an account of results in patent EP0118036A1, “Biologically active ketone derivative, preparation and use” (THE WELLCOME FOUNDATION LIMITED, priority 1983, dated 1984).

For data set [1] the following is noted: free base; cited from earlier work.
The nature of data set [2]: Stability of salts with conventional pharmaceutical carriers or excipients. The data set is classed as physicochemical. The conditions noted are these: tableting excipients, particularly magnesium stearate and stearic acid; result in words. From the text:
It will be appreciated that, in order for the salts to be used in medical therapy, it is necessary to formulate them into pharmaceutical compositions suitable for administration to the patient. The formulation of such compositions entails the admixture or contacting of the salts with various pharmaceutical carriers or excipients. Examples of solid pharmaceutical compositions which are mentioned in British Specification 1,340,032 are tablets, cachets, capsules and suppositories. Of these various types of composition, tablets and capsules are particularly preferred forms as it is generally desired to administer the active compound by the oral route. […] The formulation of the salts of the free base in capsules also presents problems because gelatin, which is commonly used to make the capsule shell, is hydrophilic and therefore creates a humid environment within the capsule, which has a deleterious effect on the 2-tert-butylamino-3'chloropropiophenone salt present in the capsule. It will therefore be appreciated that considerable difficulty arose in finding a salt of 2-tert-butylamino-3'-chloropropiophenone which has sufficient stability when formulated in pharmaceutical compositions.
A further advantage of the maleate salt is that it is much less corrosive than, for example, the hydrochloride salt which tends to corrode apparatus used in its preparation and formulation. […]

Data set [3] deals with tetrabenazine induced sedation. In words: Antagonism of tetrabenazine induced sedation (modified Vernier method). The data set is classed as in vivo, Mice. The conditions noted are these: for Percent Antagonism of Tetrabenazine Induced Sedation: CD1 male mice, 35 mg/kg tetrabenazine hydrochloride ip. Here is the method: Antagonism of tetrabenazine induced sedation was measured using a modification of the method of Vernier, et al., First Hahnemann Symposium on Psychosomatic Medicine, ed. Nodim and Moyer, pub. Lea and Febiger, Philadelphia, 1962.
Mice, three groups of 12 CD1 males each, were injected intraperitoneally (ip) with a solution of 2-tert-butylamino-3'-chlorogropiophenone hydrochloride (Cpd A) or 2-tert-butylamino-3'-chloropropiophenone maleate (Cpd B) or with saline. Thirty minutes later each of the mice was injected ip with a solution containing 35 mg/kg tetrabenazine hydrochloride. Thirty minutes after the injection of tetrabenazine each mouse was examined for its level of exploratory behavior which was scored on a modification of the arbitrary scale defined by Vernier, et al. The dose of tetrabenazine used was sufficient to cause 90 to 100 percent of the mice to remain motionless even when placed in a new environment. In the test results reported 100 percent would represent total reversal of tetrabenazine effects.
The doses of Cpd B are equivalent to the corresponding doses of Cpd A on a molar basis.

Data set [4] is described as follows: Storage stability of tablets (Examples 3, 4, 10A, 10B). The data set is classed as physicochemical. Conditions: summary in words of Table II. Here is the method:
In order to compare the storage stability of the tablets of Examples 3 and 4 with similar tablets containing the hydrochloride salt of 2-tert-butylamino-3'-chloropropiophenone, tablets having the following compositions were prepared in an analogous manner to that described in Examples 3 and 4:-
The four sets of tablets (3, 4, 10A and 10B) were tested for stability. Testing was carried out on tablets: • (a) stored at 50°C in closed bottles; and • (b) stored at 37°C in open bottles under a relative humidity of 75%.
The results are summarised in the following Table II in which the data are assay values expressed as percentage of labeled strength of the active salt, and "mo." indicates month: […]

A further data set has as its system Charles River CD1 mice. In words: 14-day oral (gavage) toxicity in mice. The conditions noted are these: 260 mg/kg per day for 14 days, gavage in 0.5 percent carboxymethylcellulose, four males and four females. The data set is classed as in vivo. Here is the method: 2-Tert-butylamino-3'-chloropropiophenone maleate was administered by gavage in 0.5 percent carboxymethylcellulose to Charles River CD1 mice (four males and four females) at a dose of 260 mg/kg per day for 14 days.

A short description of data set [5]: Comparative bulk storage stability of salts of 2-tert-butylamino-3'-chloropropiophenone. The data set is classed as physicochemical. The conditions noted are these: bulk salt, result in words. From the text: The propiophenone moiety breaks down into hydroxyketones, a diketone and meta-chlorobenzoic acid. It is of course an important desideratum for : a pharmaceutical product that it should have a reasonably good bulk stability in order to avoid or reduce wastage resulting from decomposition of the active moiety during the period between its synthesis and its use in formulating the final dosage form.
Small amounts of various salts of 2-tert-butylamino-3'-chloropropiophenone were each placed in a clean borosilicate glass vial which was sealed with a Teflon-faced rubber closure. The samples were then placed in an oven maintained at 70°C (except for the formate which was stored at 75°C) and visual comparisons were made over a period of 1-3 days. The observations are recorded in the following Table I: […]

Where a name gives a salt, the structure may show the parent alone.

In the case of `CC(NC(C)(C)C)C(=O)c1cccc(Cl)c1` (stereo not drawn) [2-tert-butylamino-3'-chloropropiophenone], the pKa in data set [1] is 8.5-9.

Regarding `CC(NC(C)(C)C)C(=O)c1cccc(F)c1` (stereo not drawn) [3'-fluoro analogue], in data set [1], the pKa is given as 8.5-9.

Consider `CC(NC(C)(C)C)C(=O)c1cccc(Cl)c1` (stereo not drawn) [Cpd A, 2-tert-butylamino-3'-chlorogropiophenone hydrochloride], for which, in data set [2], the “stability in association with conventional pharmaceutical carriers and excipients” value is “limited stability”. The entries for the “Percent Antagonism of Tetrabenazine Induced Sedation” value in data set [3] (dose 12.5 mg/kg (ip)), in data set [3] (dose 25 mg/kg (ip)) and in data set [3] (dose 50 mg/kg (ip)) were 17.5%, 50% and 62.5%, respectively. For the same compound, the “stability in the formulated tablets” value in data set [4] is given as “limited stability”.

Turning to `CC(NC(C)(C)C)C(=O)c1cccc(Cl)c1.O=C(O)/C=C\C(=O)O` (stereo not drawn) [Cpd B, 2-tert-butylamino-3'-chloropropiophenone maleate], the “stability in association with conventional pharmaceutical carriers and excipients” value in data set [2] is “advantageous stability characteristics”. Further, the survival result in the data set with Charles River CD1 mice is recorded as “All of the mice survived”. For the same compound, the “Percent Antagonism of Tetrabenazine Induced Sedation” value in data set [3] (dose 16.1 mg/kg (ip)) was determined as 27.5%; in data set [3] (dose 32.2 mg/kg (ip)), 62.5%; in data set [3] (dose 64.4 mg/kg (ip)), 60%. In data set [3] (rodents, result in words), the “antidepressant activity in the tetrabenazine-induced sedation test” value is “good antidepressant activity”. Besides, the “stability in the formulated tablets” value in data set [4] was “relatively stable”.

For the compound `CC(NC(C)(C)C)C(=O)c1cccc(Cl)c1` (stereo not drawn) [napthalenesulphonate monohydrate], in data set [5], the stability upon storage entry is “unstable upon storage”.
